# PMC9161616, “A first-in-human phase 1/2 study of FGF401 and combination of FGF401 with spartalizumab in patients with hepatocellular carcinoma or biomarker-selected solid tumors” (Journal of Experimental & Clinical Cancer Research : CR, 2022)
# Like-named read-outs stand apart in the source and are kept apart here.
# Legend:
# [1] = Plasma pharmacokinetics of FGF401 (noncompartmental) and food effect; format: in vivo, human
# Method: Pharmacokinetic endpoints included plasma concentrations and PK parameters of FGF401 and spartalizumab. Pharmacokinetic parameters were determined with noncompartmental method(s) using Phoenix WinNonlin version 6.4 or above (Pharsight Corporation, Mountain View, Califormia, USA). Immunogenicity of spartalizumab was assessed through presence and/or concentration of anti-drug (spartalizumab) antibodies (ADA). Food effect on FGF401 exposure was evaluated through plasma concentration of FGF401 and relevant PK parameters when dosing under fed condition. Safety of the food effect was assessed through incidence and severity of AEs and serious AEs (SAEs), including changes in laboratory values, vital signs, and ECGs when dosing under fed condition. The PK analyses and summary statistics were based on pharmacokinetic analysis set. Individual as well as mean concentration-time profiles were constructed using concentration data for spartalizumab and FGF401. Descriptive statistics for PK parameters included mean, standard deviation, coefficient of variation (CV%) mean, geometric mean, median, minimum, and maximum, with only the latter 3 for time to reach maximum concentration (Tmax) and additional 90% CI for accumulation ratio (Racc). Zero concentrations were not included in the geometric mean calculations. Missing concentrations or PK parameter values were not imputed.
# phospho-FGFR4 = conditions: preclinical; read-out: in vivo phospho-FGFR4 IC90; cited from earlier work
# [2] = human, plasma, oral, 80 mg, Cycle 1 day 8, 80 mg Fasted, n=6, geometric mean (CV%)
# [3] = human, plasma, oral, 80 mg, Cycle 1 day 8, 80 mg Fed, n=4, geometric mean (CV%)
# [4] = human, plasma, oral, 150 mg, Cycle 1 day 8, 150 mg Fasted, n=6, geometric mean (CV%)
# [5] = low fat meals, 80 mg and 120 mg
structure (smiles),measurement,setting,value
"COCCNc1cc(NC(=O)N2CCCc3cc(CN4CCN(C)CC4=O)c(C=O)nc32)ncc1C#N [FGF401, roblitinib]",Racc,"[1]; Cycle 1 day 8, 80 mg Fed, n=4, geometric mean (CV%)",1.04 (18.6)
same,Racc,"[1]; Cycle 1 day 8, 120 mg Fasted, n=24, geometric mean (CV%)",1.03 (26.2)
same,Racc,"[1]; Cycle 1 day 8, 120 mg Fed, n=15, geometric mean (CV%)",0.95 (22.5)
same,Racc,"[1]; Cycle 1 day 8, 150 mg Fasted, n=6, geometric mean (CV%)",0.982 (33.3)
same,food effect,"[1]; dosed with low-fat meals, 80 mg and 120 mg",no food effect
same,mean trough concentration at steady state (24 h post-dose) versus phospho-FGFR4 IC90,[1]; even at 50 mg qd,approximately above this IC90
same,AUC(0-inf),"[1]; human, plasma, oral, 50 mg, Cycle 1 day 8, 50 mg Fasted, n=6, geometric mean (CV%)",3650 ng·h/mL
same,half-life,"[1]; human, plasma, oral, 50 mg, Cycle 1 day 8, 50 mg Fasted, n=6, geometric mean (CV%), read-out: T1/2 (converted)",6.57 h
same,Cmax,"[1]; human, plasma, oral, 50 mg, Cycle 1 day 8, 50 mg Fasted, n=7, geometric mean (CV%)",663 ng/mL
same,AUC(0-t),"[1]; human, plasma, oral, 50 mg, Cycle 1 day 8, 50 mg Fasted, n=7, geometric mean (CV%), read-out: AUC0-24h",3650 ng·h/mL
same,AUC(0-t),"[1]; human, plasma, oral, 50 mg, Cycle 1 day 8, 50 mg Fasted, n=7, geometric mean (CV%), read-out: AUClast",3460 ng·h/mL
same,Tmax,"[1]; human, plasma, oral, 50 mg, Cycle 1 day 8, 50 mg Fasted, n=7, median [min, max], read-out: Tmax",1 h
same,AUC(0-inf),[1]; [2],5130 ng·h/mL
same,Cmax,[1]; [2],838 ng/mL
same,AUC(0-t),"[1]; human, plasma, oral, 80 mg, Cycle 1 day 8, 80 mg Fasted, n=6, geometric mean (CV%), read-out: AUC0-24h",4850 ng·h/mL
same,AUC(0-t),"[1]; human, plasma, oral, 80 mg, Cycle 1 day 8, 80 mg Fasted, n=6, geometric mean (CV%), read-out: AUClast",4840 ng·h/mL
same,half-life,"[1]; human, plasma, oral, 80 mg, Cycle 1 day 8, 80 mg Fasted, n=6, geometric mean (CV%), read-out: T1/2 (converted)",6.08 h
same,Tmax,"[1]; human, plasma, oral, 80 mg, Cycle 1 day 8, 80 mg Fasted, n=6, median [min, max], read-out: Tmax",1.01 h
same,AUC(0-inf),[1]; [3],5550 ng·h/mL
same,Cmax,[1]; [3],704 ng/mL
same,AUC(0-t),"[1]; human, plasma, oral, 80 mg, Cycle 1 day 8, 80 mg Fed, n=4, geometric mean (CV%), read-out: AUC0-24h",5290 ng·h/mL
same,AUC(0-t),"[1]; human, plasma, oral, 80 mg, Cycle 1 day 8, 80 mg Fed, n=4, geometric mean (CV%), read-out: AUClast",5280 ng·h/mL
same,half-life,"[1]; human, plasma, oral, 80 mg, Cycle 1 day 8, 80 mg Fed, n=4, geometric mean (CV%), read-out: T1/2 (converted)",5.58 h
same,Tmax,"[1]; human, plasma, oral, 80 mg, Cycle 1 day 8, 80 mg Fed, n=4, median [min, max], read-out: Tmax",2.5 h
same,AUC(0-inf),"[1]; human, plasma, oral, 120 mg, Cycle 1 day 8, 120 mg Fasted, n=18, geometric mean (CV%)",7590 ng·h/mL
same,half-life,"[1]; human, plasma, oral, 120 mg, Cycle 1 day 8, 120 mg Fasted, n=18, geometric mean (CV%), read-out: T1/2 (converted)",5.43 h
same,Cmax,"[1]; human, plasma, oral, 120 mg, Cycle 1 day 8, 120 mg Fasted, n=24, geometric mean (CV%)",1120 ng/mL
same,AUC(0-t),"[1]; human, plasma, oral, 120 mg, Cycle 1 day 8, 120 mg Fasted, n=24, geometric mean (CV%), read-out: AUC0-24h",6970 ng·h/mL
same,AUC(0-t),"[1]; human, plasma, oral, 120 mg, Cycle 1 day 8, 120 mg Fasted, n=24, geometric mean (CV%), read-out: AUClast",6480 ng·h/mL
same,Tmax,"[1]; human, plasma, oral, 120 mg, Cycle 1 day 8, 120 mg Fasted, n=24, median [min, max], read-out: Tmax",1.04 h
same,AUC(0-inf),"[1]; human, plasma, oral, 120 mg, Cycle 1 day 8, 120 mg Fed, n=15, geometric mean (CV%)",7980 ng·h/mL
same,half-life,"[1]; human, plasma, oral, 120 mg, Cycle 1 day 8, 120 mg Fed, n=15, geometric mean (CV%), read-out: T1/2 (converted)",5.58 h
same,AUC(0-t),"[1]; human, plasma, oral, 120 mg, Cycle 1 day 8, 120 mg Fed, n=16, geometric mean (CV%), read-out: AUC0-24h",7330 ng·h/mL
same,Cmax,"[1]; human, plasma, oral, 120 mg, Cycle 1 day 8, 120 mg Fed, n=18, geometric mean (CV%)",1060 ng/mL
same,AUC(0-t),"[1]; human, plasma, oral, 120 mg, Cycle 1 day 8, 120 mg Fed, n=18, geometric mean (CV%), read-out: AUClast",7640 ng·h/mL
same,Tmax,"[1]; human, plasma, oral, 120 mg, Cycle 1 day 8, 120 mg Fed, n=18, median [min, max], read-out: Tmax",3.01 h
same,AUC(0-inf),[1]; [4],7850 ng·h/mL
same,Cmax,[1]; [4],1070 ng/mL
same,AUC(0-t),"[1]; human, plasma, oral, 150 mg, Cycle 1 day 8, 150 mg Fasted, n=6, geometric mean (CV%), read-out: AUC0-24h",7510 ng·h/mL
same,AUC(0-t),"[1]; human, plasma, oral, 150 mg, Cycle 1 day 8, 150 mg Fasted, n=6, geometric mean (CV%), read-out: AUClast",7550 ng·h/mL
same,half-life,"[1]; human, plasma, oral, 150 mg, Cycle 1 day 8, 150 mg Fasted, n=6, geometric mean (CV%), read-out: T1/2 (converted)",5.24 h
same,Tmax,"[1]; human, plasma, oral, 150 mg, Cycle 1 day 8, 150 mg Fasted, n=6, median [min, max], read-out: Tmax",2.42 h
same,Tmax,"[1]; human, plasma, oral, cycle 1 day 1, read-out: median Tmax across phase 1 treatment groups",1 to 2.98 h
same,Tmax,"[1]; human, plasma, oral, cycle 1 day 8, read-out: median Tmax across phase 1 treatment groups",1 to 3.01 h
same,Tmax,"[1]; human, plasma, oral, cycle 2 day 1, read-out: median Tmax across phase 1 treatment groups",1.01 to 3.02 h
same,half-life,"[1]; human, plasma, oral, over all treatments and during all periods, read-out: terminal half-life (T1/2)",4.91 to 6.57 h
same,AUC,"[1]; human, plasma, oral, 120 mg fasted, C1D8, geometric mean, CV 38.7%, read-out: AUCtau at steady state",6970 ng·h/mL
same,overall interpatient variability of drug exposure,[1]; in vivo,moderate
same,food effect on Tmax,[1]; [5],slightly delayed Tmax
same,food effect on half-life,[1]; [5],no effect on half-life
same,drug accumulation following repeated dosing,[1]; qd dosing,no drug accumulation
same,IC90,phospho-FGFR4,52.1 nM
